Measurements: patent US11186576B2, “Pyrazolo[1,5-A][1,3,5]triazine and pyrazolo[1,5-A]pyrimidine derivatives as CDK inhibitors” (Aurigene Discovery Technologies Limited, priority 2015, dated 2021)

Tests used:
[1] = target: CDK7/CycH/MNAT1 (Homo sapiens (Human), UniProt P50613); test: Biochemical assay for CDK7 (TR-FRET kinase assay); details: 60 min pre-incubation, 1 mM ATP; for inhibition at 10 µM / % inhibition @ 10 μM: 10 μM compound; for inhibition at 10 µM: read-out: % inhibition @ 10 μM; for IC50: read-out: IC50
CDK7/CycH/MNAT1, sequence (P50613 whole entry): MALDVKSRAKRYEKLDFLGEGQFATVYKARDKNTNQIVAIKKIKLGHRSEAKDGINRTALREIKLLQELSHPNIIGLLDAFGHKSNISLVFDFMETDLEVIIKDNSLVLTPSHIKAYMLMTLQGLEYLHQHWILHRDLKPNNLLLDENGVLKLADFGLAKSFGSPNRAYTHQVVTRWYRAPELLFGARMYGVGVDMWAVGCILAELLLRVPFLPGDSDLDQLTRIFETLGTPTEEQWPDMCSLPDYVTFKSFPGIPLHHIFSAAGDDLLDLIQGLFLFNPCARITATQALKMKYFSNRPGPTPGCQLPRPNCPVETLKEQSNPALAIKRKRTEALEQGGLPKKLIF
CDK7/CycH/MNAT1, sequence (P51946 whole entry partner): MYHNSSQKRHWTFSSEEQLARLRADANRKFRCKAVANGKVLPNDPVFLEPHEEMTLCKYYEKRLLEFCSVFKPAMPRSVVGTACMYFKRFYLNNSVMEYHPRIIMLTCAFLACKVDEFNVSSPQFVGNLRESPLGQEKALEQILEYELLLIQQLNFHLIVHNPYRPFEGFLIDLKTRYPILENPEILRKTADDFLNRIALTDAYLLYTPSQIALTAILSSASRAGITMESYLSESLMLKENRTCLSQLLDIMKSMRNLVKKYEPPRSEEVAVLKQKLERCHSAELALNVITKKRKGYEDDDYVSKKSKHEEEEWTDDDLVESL
CDK7/CycH/MNAT1, sequence (P51948 whole entry partner): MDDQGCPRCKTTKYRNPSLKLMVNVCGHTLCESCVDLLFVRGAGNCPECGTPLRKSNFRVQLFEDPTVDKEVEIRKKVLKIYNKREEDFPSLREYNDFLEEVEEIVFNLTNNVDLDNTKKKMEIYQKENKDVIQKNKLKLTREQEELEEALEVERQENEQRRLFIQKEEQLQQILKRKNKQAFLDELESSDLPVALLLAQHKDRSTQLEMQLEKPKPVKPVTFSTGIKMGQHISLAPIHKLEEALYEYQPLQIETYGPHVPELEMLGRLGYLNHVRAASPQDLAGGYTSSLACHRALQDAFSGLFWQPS
Summary of the method: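 CDK7/CycH/MNAT1 (5 nM) was preincubated with compound for 60 min at room temperature, then reacted for 60 min with 100 nM ULight-MBP and 1 mM ATP in 1% DMSO. Irreversibility was probed with 20, 60 and 180 min preincubations.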

[2] = test system: RNA polymerase II CTD phosphorylation (MDA-MB-231/NCI-H358 cells); test: Inhibition of RNA polymerase II CTD phosphorylation in cell western assay; type: cell-based; details: 4 hours incubation, phospho RNA Pol II Ser-5 or Ser-2
Protocol: 25000 cells (MDA-MB-231/NCI-H358) were seeded in 96 well black clear bottom plate incubated for overnight before addition of selected compound. 3 fold dilutions of selected compound diluted in DMSO starting from 10 μM, added to cells and incubated for 4 hours at 37° C., 5% CO2 incubator. Cells were washed once with 100 μl of phosphate buffered saline (sigma #P3813), then fixed with 100 μl/well of 4% Para formaldehyde for 60 min at room temperature, in dark. The cells were washed 3 times with 100 μl of wash buffer (PBS with 0.1% Triton-X-100), later blocked for 2 hours at room temperature in blocking buffer (5% BSA in PBST). Cells were stained overnight at 4° C. with Phospho RNA Pol II (S5) (Millipore #04-1572, Abcam #5131) or Phospho RNA Pol II (Ser-2), antibody (Bethyl labs #A300-654-A) in blocking buffer. Post incubation cells were washed with Delifia wash buffer (Perkin Elmer #4010-0010). Cells were treated with LANCE secondary antibodies (LANCE® Eu-W1024 perkin elmer #AD-0076 for phospho Ser-5 CTD RNA pol-II and Delfia Eu-N1 anti rabbit IgG Perkin elmer #AD0106 for phospho Ser-2 CTD RNA pol-II) for 2 hours in assay buffer (Perkin Elmer #1244-111), Cells were washed 3 times with Delfia wash buffer post incubation, Enhancement solution (Perkin Elmer #1244-105) added and incubated for 20 mins. Europium readings were taken in Victor-3 instrument. Cell normalization was done using Hoechst dye (0.5 μg/ml).
Selected compounds were screened in the above mentioned assay procedure. The EC50 values are summarised in the below table; wherein group “A” refers to an EC50 value of less than or equal to 1 μM, group “B” refers to EC50 value in range of 1 to 10 μM and group “C” refers to EC50 value of greater than 10 μM.

SMILES	inhibition at 10 µM [1] [%]	IC50 [1] [nM]	EC50 [2] [nM]	% inhibition @ 10 μM [1] [%]
C=CC(=O)N1CCCC(C(=O)Nc2cccc(CNc3nc(OC4CCOCC4)nc4c(C(C)C)cnn34)c2)C1 (stereo not drawn) [Compound 96, 1-acryloyl-N-(3-(((8-isopropyl-2-((tetrahydro-2H-pyran-4-yl)oxy)pyrazolo[1,5-a][1,3,5]triazin-4-yl)amino)methyl)phenyl)piperidine-3-carboxamide]	87	300 to 1000	1000 to 10000	–
C=CC(=O)N1CCC(C(=O)Nc2cccc(CNc3nc(NC4CCCC(O)C4)nc4c(C(C)C)cnn34)c2)C1 (single isomer, unassigned) [Compound 13, 1-acryloyl-N-(3-(((2-((3-hydroxycyclohexyl)amino)-8-isopropylpyrazolo[1,5-a][1,3,5]triazin-4-yl)amino)methyl)phenyl)pyrrolidine-3-carboxamide]	–	300 to 1000	1000 to 10000	93
C=CC(=O)N1CCCC1C(=O)Nc1cccc(CNc2nc(NC3CCOCC3)nc3c(C(C)C)cnn23)c1 (stereo not drawn) [Compound 3, 1-acryloyl-N-(3-(((8-isopropyl-2-((tetrahydro-2H-pyran-4-yl)amino)pyrazolo[1,5-a][1,3,5]triazin-4-yl)amino)methyl)phenyl)pyrrolidine-2-carboxamide]	96	< 300	≤ 1000	–
C=CC(=O)N[C@H]1CC[C@@H](C(=O)Nc2cccc(CNc3nc(OC4CCOCC4)nc4c(C(C)C)cnn34)c2)CC1 [Compound 97, (1,4-cis)-4-acrylamido-N-(3-(((8-isopropyl-2-((tetrahydro-2H-pyran-4-yl)oxy)pyrazolo[1,5-a][1,3,5]triazin-4-yl)amino)methyl)phenyl)cyclohexane-1-carboxamide]	87	300 to 1000	1000 to 10000	–
C=CC(=O)N[C@H]1CC[C@@H](C(=O)Nc2cccc(CNc3nc(OC4CCN(C)CC4)nc4c(CC)cnn34)c2)CC1 [Compound 90, (1,4-cis)-4-acrylamido-N-(3-(((8-ethyl-2-((1-methylpiperidin-4-yl)oxy)pyrazolo[1,5-a][1,3,5]triazin-4-yl)amino)methyl)phenyl)cyclohexane-1-carboxamide]	95	< 300	1000 to 10000	–
C=CC(=O)N1CCC(C(=O)Nc2cccc(CNc3nc(N[C@@H]4CCNC[C@H]4F)nc4c(C(C)C)cnn34)c2)C1 (stereo partly drawn) [Compound 14, 1-acryloyl-N-(3-(((2-(((3R,4R)-3-fluoropiperidin-4-yl)amino)-8-isopropylpyrazolo[1,5-a][1,3,5]triazin-4-yl)amino)methyl)phenyl)pyrrolidine-3-carboxamide]	97	< 300	1000 to 10000	–
C=CC(=O)N1CCC(C(=O)Nc2cccc(CNc3nc(OC4CCN(C)CC4)nc4c(C(C)C)cnn34)c2)C1 (stereo not drawn) [Compound 108, 1-acryloyl-N-(3-(((8-isopropyl-2-((1-methylpiperidin-4-yl)oxy)pyrazolo[1,5-a][1,3,5]triazin-4-yl)amino)methyl)phenyl)pyrrolidine-3-carboxamide]	99	< 300	1000 to 10000	–
CC(C)c1cnn2c(Nc3cccc(NC(=O)[C@H]4CC[C@H](NC(=O)/C=C/CN(C)C)CC4)c3)nc(OC3CCN(C)CC3)nc12 [Compound 132, (1,4-Trans)-4-((E)-4-(dimethylamino)but-2-enamido)-N-(3-((8-isopropyl-2-((1-methylpiperidin-4-yl)oxy)pyrazolo[1,5-a][1,3,5]triazin-4-yl)amino)phenyl)cyclohexane-1-carboxamide]	90	< 300	> 10000	–
C=CC(=O)N1CCC(C(=O)Nc2cccc(CNc3nc(OC4CCN(C)CC4)nc4c(CC)cnn34)c2)CC1 [Compound 88, 1-acryloyl-N-(3-(((8-ethyl-2-((1-methylpiperidin-4-yl)oxy)pyrazolo [1,5-a][1,3,5]triazin-4-yl)amino)methyl)phenyl)piperidine-4-carboxamide]	97	< 300	1000 to 10000	–
C=CC(=O)N1CCCC(C(=O)Nc2cccc(CNc3nc(NC4CCN(C)CC4)nc4c(C(C)C)cnn34)c2)C1 (stereo not drawn) [Compound 8, 1-acryloyl-N-(3-(((8-isopropyl-2-((1-methylpiperidin-4-yl)amino)pyrazolo[1,5-a][1,3,5]triazin-4-yl)amino)methyl)phenyl)piperidine-3-carboxamide]	96	< 300	≤ 1000	–
C=CC(=O)N1CCC(C(=O)Nc2cccc(CNc3nc(OC4CCN(C)CC4)nc4c(C(C)C)cnn34)c2)C1 (single isomer, unassigned) [Compound 110, 1-acryloyl-N-(3-(((8-isopropyl-2-((1-methylpiperidin-4-yl)oxy)pyrazolo[1,5-a][1,3,5]triazin-4-yl)amino)methyl)phenyl)pyrrolidine-3-carboxamide]	–	< 300	1000 to 10000	99
C=CC(=O)N1CCC(C(=O)Nc2cccc(CNc3nc(OC4CCN(C)CC4)nc4c(C(C)C)cnn34)c2)CC1 [Compound 111, 1-acryloyl-N-(3-(((8-isopropyl-2-((1-methylpiperidin-4-yl)oxy)pyrazolo[1,5-a][1,3,5]triazin-4-yl)amino)methyl)phenyl)piperidine-4-carboxamide]	95	< 300	1000 to 10000	–
